The values that follow come from PMC6749236, “Synthesis of Novel 2-(Het)arylpyrrolidine Derivatives and Evaluation of Their Anticancer and Anti-Biofilm Activity” (Molecules, 2019).

One series has as its system M-Hela. The series can be described thus: Cytotoxicity assay (Cytell Cell Imaging, DAPI/propidium iodide), cancer cell line. In kind it is cell-based. To be noted: Homo sapiens, M-HeLa, read-out: IC50 Cancer Cell Line M-Hela.
The subject of the next series is Chang liver cell line. In words: Cytotoxicity assay (Cytell Cell Imaging), normal cell line. The format is cell-based. As to conditions: Homo sapiens, read-out: IC50 Normal Cell Line Chang Liver.
In series [1] the test system is Acinetobacter calcoaceticus VKPM B-10353. The series can be described thus: Biofilm formation, crystal violet assay. In kind it is cell-based. As to conditions: A. calcoaceticus VKPM B-10353; for Biofilm Formation: control = 100%; for Biofilm formation with respect to control, over the investigated concentrations: 1 × 10^−9–1 × 10^−5 M. As for the experimental part: (§1) Bacterial strains and cultivation conditions. For the detection of biofilms, formation strains Vibrio aquamarinus DSM 26054 and Acinetobacter calcoaceticus VKPM B-10353 were used. These strains form biofilms, making them useful for studying biofilms.
(§2) The bacterial strains Acinetobacter calcoaceticus VKPM B-10353, E. coli MG1655 (pRecA-lux), and E. coli MG1655 (pSoxS-lux) were cultivated in Luria–Bertani (LB) medium under constant shaking to early exponential phase at 37 °C. Cells were used immediately for stress induction tests. One hundred micrograms of ampicillin per milliliter were added into LB medium at cultivation of E. coli MG1655 (pRecA-lux) and E. coli MG1655 (pSoxS-lux). Strain V. aquamarinus DSM 26054 was grown in LB medium supplemented with 3% NaCl.
(§3) The test compounds were dissolved in DMSO to the concentration of 1 × 10^−2 M. Then, they were diluted with ethanol. The control solutions were analogous dilutions of DMSO in ethanol. The tested compounds were also compared with the standard antibiotic azithromycin. Azithromycin was dissolved in DMSO to the concentration of 5 × 10^−3 M and then diluted with deionized water.
(§4) Test system for evaluation of biofilms production. To quantify the formation of biofilms, the crystal violet assay was used, with some modifications. The necessary concentrations of the test compounds were prepared as described above.
(§5) V. aquamarinus DSM 26054 was cultivated for 24 h in LB medium supplemented with 3% NaCl in the Innova 40R shaker incubator (New Brunswick Scientific, USA) at 25 °C and 200 rpm. A. calcoaceticus VKPM B-10353 was cultivated for 24 h in LB medium in the Innova 40R shaker incubator (New Brunswick Scientific, Enfield, CT, USA) at 30 °C and 200 rpm. Then, the suspensions of the daily culture of V. aquamarinus DSM 26054 and A. calcoaceticus VKPM B-10353 were diluted with LB medium supplemented with 3% NaCl to the density of 1 × 10^8 cells/mL.
(§6) The resulting suspension (180 μL) was added to the wells of a polystyrene microplate (Nuova Aptaca, Canelli, Italy). To some of the wells, 20 μL of the test substances at various concentrations were added. Since solvents used could also influence the biofilm formation, 20 μL of the appropriate solvent was added to the other part of the wells at same dilutions (control). Six replicates were done for each treatment and control. The microplate was covered with a lid and wrapped with Parafilm (Bemis Company, Inc., Oshkosh, WI, USA).
(§7) After incubation at 25 °C for 72 h, biofilms were stained. The contents in the wells were removed by means of a dispenser. The wells were then carefully washed three times with 250 μL of sterile saline. The microplates were shaken to remove all non-adherent bacteria. Biofilms were fixed with 200 μL of 96% ethanol for 15 min. After the microplates had dried in air, 200 μL of 0.5% crystal violet was introduced into the wells. After 10 min, the dye was removed. The excess dye was removed by washing with water three times. After the microplates were air-dried, the dye in the wells bound to biofilms was dissolved with 200 μL of 96% ethanol. The extraction level (absorption) of crystal violet by ethanol was measured after 60 minutes at a wavelength of 570 nm using a FLUOstar Omega microplate reader (BMG Labtech, Offenburg, Germany) in optical density units (OD570). The intensity of biofilm formation directly corresponds to the intensity of staining of the contents of the wells with the dye. Biofilm formation was determined by the difference between the mean OD readings obtained in the presence of compounds and the control.
(§8) Each experiment was performed in triplicate. The values were expressed as mean + SD. Student’s t-test was used to compare these values. Differences were considered statistically significant at p < 0.05.

The test system of series [2] is Vibrio aquamarinus DSM 26054. The series can be described thus: Biofilm formation, crystal violet assay. In kind it is cell-based. To be noted: V. aquamarinus DSM 26054, control = 100%. As for the experimental part:
as §1, §2, §3, §4, §5, §6, §7, §8

For series [3], the system named is Escherichia coli MG1655 (pRecA-lux). The series can be described thus: Genotoxicity, bacterial lux-biosensor. The format is cell-based.
From the text: (§9) E. coli MG1655 (pRecA-lux) was used for the evaluation of the genotoxicity of the synthesized compounds. The biosensor with the PrecA promotor fixes the presence of the factors causing damage of DNA in a cell. The biosensor E. coli MG1655 (pSoxS-lux) was used for the evaluation of prooxidant activity. The biosensor with the PsoxS promoter fixes the production of superoxide anion and NO [75]. Bioluminescent strains were obtained by the transformation of E. coli MG1655 by hybrid plasmids pRecA-lux, pSoxS-lux. The gene cassette luxCDABE Photorhabdus luminescens under the control PrecA promoters was used in this biosensor. This plasmid was created on the basis of pBR322 and contained a selective marker of ampicillin resistance (Amp gene). The strains were kindly furnished by Manukhov I.V., Federal State Unitary Enterprise “GosNIIGenetika”).
as §2
(§10) Biosensors assay procedure. The detailed protocol of toxicity testing by means of a bacterial lux-biosensors is described in the article.
(§11) Calculation. The criterion of toxic influence was bioluminescence intensity change of the test object in the researched sample in comparison with the control sample.
(§12) The induction factor (I) was defined as the relation of luminescence intensity of a lux-biosensor suspension containing tested sample (Lc) to the luminescence intensity of a lux-biosensor control suspension (Lk): I = Lc/Lk.
If at significant differences from control induction factor values were ≤2, the detected genotoxic effect was evaluated as “weak”, if they were in the range from 2 to 10 as “medium”, and above 10 as “strong”. All the experiments were carried out three times independently.
(§13) Difference reliability of bioluminescence in experiment from control value was estimated by t-criterion with the help of Excel software. The conclusions about sample toxicity were made at p < 0.05.

Series [4] relates to E. coli MG1655 (pSoxS-lux). In words: Prooxidant activity, bacterial lux-biosensor. In kind it is cell-based, Escherichia coli.
From the text: as §9, §2, §10, §11, §12, §13

pIC50: −log10 of the molar value. Where “and” joins values, the source holds several entries; their conditions need not be identical. Identical values can stand only once. Marks after values point to notes of the source that are not given here.

`Cc1cc(O)c(C2CCCN2C(=O)Nc2ccc(Br)cc2)c(=O)o1` (centres unmarked) [7d, N-(4-Bromophenyl)-2-(4-hydroxy-6-methyl-2-oxo-2H-pyran-3-yl)pyrrolidine-1-carboxamide]: the pIC50 with M-Hela and with Chang liver cell line was less than 4.00 in each case.

As for `CC[C@H]1OC(=O)[C@H](C)[C@@H](O[C@H]2C[C@@](C)(OC)[C@@H](O)[C@H](C)O2)[C@H](C)[C@@H](O[C@@H]2O[C@H](C)C[C@H](N(C)C)[C@H]2O)[C@](C)(O)C[C@@H](C)CN(C)[C@H](C)[C@@H](O)[C@]1(C)O` [Azithromycin, reference compound], the “Biofilm Formation” value in series [1] (1 × 10^−5 M) is 101.79%; in series [1] (1 × 10^−6 M), 106.07%; in series [1] (1 × 10^−7 M) it was 105.71%; in series [1] (1 × 10^−8 M), 96.07%; in series [1] (1 × 10^−9 M), 95.00%; in series [2] (1 × 10^−5 M), 81.5% and 81.50 * %. Also, the “Biofilm Formation” value was found to be 103.80% in series [2] (1 × 10^−6 M), 99.39% in series [2] (1 × 10^−7 M), 102.43% in series [2] (1 × 10^−8 M) and 103.42% in series [2] (1 × 10^−9 M). The “Biofilm formation with respect to control, over the investigated concentrations” value in series [1] is “not detected”.

Regarding `O=[N+]([O-])c1c(Cl)cc2c(no[n+]2[O-])c1Nc1cccc(O)c1` [compound 4, 6-Chloro-4-((3-hydroxyphenyl)amino)-5-nitrobenzo[c][1,2,5]oxadiazole 1-oxide], the “Biofilm Formation” value is 149.22* % in series [1] (1 × 10^−5 M); 97.99% in series [1] (1 × 10^−6 M); 78.63 * % in series [1] (1 × 10^−7 M); 62.12 * % in series [1] (1 × 10^−8 M); 86.67 * % in series [1] (1 × 10^−9 M); 96.57% in series [2] (1 × 10^−5 M). In addition, the “Biofilm Formation” value in series [2] (1 × 10^−6 M) is given as 43.56 * %; in series [2] (1 × 10^−7 M) it was 11.34 * %; in series [2] (1 × 10^−8 M) it was 9.31 * %; in series [2] (1 × 10^−9 M), 66.58%. Also, in series [1], the “Biofilm formation with respect to control, over the investigated concentrations” value is “both suppressing and stimulating”. The “DNA-damaging property, in words” value in series [3] (10^−9–10^−5 M, with and without S9) was “do not belong to the class of DNA-damaging substances”. Further, the “Genotoxicity (induction factor, I)” value in series [3] (with metabolic activation (+S9), 10^−5 M) was determined as 1.11 ± 0.01; in series [3] (with metabolic activation (+S9), 10^−6 M) it was 1.28 ± 0.04; in series [3] (with metabolic activation (+S9), 10^−7 M), 1.18 ± 0.01; in series [3] (with metabolic activation (+S9), 10^−8 M) it was 1.11 ± 0.02; in series [3] (with metabolic activation (+S9), 10^−9 M), 1.19 ± 0.01; in series [3] (without metabolic activation (-S9), 10^−5 M), 1.10 ± 0.00. The “Genotoxicity (induction factor, I)” value in series [3] (without metabolic activation (-S9), 10^−6 M) is 1.27 ± 0.01; in series [3] (without metabolic activation (-S9), 10^−7 M), 1.14 ± 0.02; in series [3] (without metabolic activation (-S9), 10^−8 M), 1.27 ± 0.07; in series [3] (without metabolic activation (-S9), 10^−9 M), 1.21 ± 0.04. Moreover, the “Prooxidant activity (induction factor)” value in series [4] (10^−5 M) was 1.64 ± 0.04; in series [4] (10^−6 M) it was 1.54 ± 0.07; in series [4] (10^−7 M), 1.74 ± 0.14; in series [4] (10^−8 M), 2.08 ± 0.05; in series [4] (10^−9 M) it was 1.85 ± 0.10. In addition, the “effect of superoxide-anion radical or NO level increase, in words” value in series [4] (10^−9–10^−8 M and 10^−7–10^−5 M) is given as “weak effect”.

Usually pIC50 stands for −log10 of the IC50, conventionally taken in molar units.
